# Results as given in patent publication US20220313698A1, “MODULATORS OF CYSTIC FIBROSIS TRANSMEMBRANE CONDUCTANCE REGULATOR” (Vertex Pharmaceuticals Incorporated, priority 2019, published 2022).
# Molecular target: CFTR-mediated chloride transport (Homo sapiens, UniProt P13569)
# Test: Corrector Assay A - membrane potential dye assay (enteroid cells)
# Conditions: for Corrector Assay A % activity: % of chloride transport of triple combination control (1 μM (14S)-dispiro macrocycle + 3 μM tezacaftor + 300 nM ivacaftor); for EC50: read-out: Corrector Assay A EC50, human intestinal enteroid cells, 18-24 h incubation, acute 10 μM forskolin + 300 nM ivacaftor
SMILES,Corrector Assay A % activity,EC50
CN(C)CCNc1cccc([C@H]2CC[C@@H]3CN(c4nc(C(C)(C)C)ccc4C(=O)NS(=O)(=O)c4cccc(n4)N2)C(C)(C)C3)n1 [Compound 189],++ (++ is 30-60%),< 1 µM
CC(C)(C)c1ccc2c(n1)N1C[C@@H](CC[C@@H](c3cccc(N4CCOCC4)n3)Nc3cccc(n3)S(=O)(=O)NC2=O)CC1(C)C [Compound 190],++ (++ is 30-60%),< 1 µM
CC(C)(C)c1ccc2c(n1)N1C[C@@H](CC[C@H](c3cccc(N4CCOCC4)n3)Nc3cccc(n3)S(=O)(=O)NC2=O)CC1(C)C [Compound 191],+++ (+++ is >60%),< 1 µM
CC1(C)C[C@@H]2CC[C@@H](c3ccccn3)Nc3cccc(n3)S(=O)(=O)NC(=O)c3ccc(C#N)nc3N1C2 [Compound 192],+ (+ is <30%),1 to 3 µM
"CC1(C)C[C@@H]2CC[C@H](c3ccccn3)Nc3cccc(n3)S(=O)(=O)NC(=O)c3ccc(C#N)nc3N1C2 [Compound 193, (14S,17R)-12,12-dimethyl-2,2,4-trioxo-17-(pyridin-2-yl)-2λ^6-thia-3,9,11,18,23-pentaazatetracyclo[17.3.1.111,14.05,10]tetracosa-1(22),5,7,9,19(23),20-hexaene-8-carbonitrile]",+++ (+++ is >60%),> 3 µM
CN1CCN(c2cccc([C@@H]3CC[C@@H]4CN(c5nc(C(C)(C)C)ccc5C(=O)NS(=O)(=O)c5cccc(n5)N3)C(C)(C)C4)n2)CC1 [Compound 194],++ (++ is 30-60%),< 1 µM
"CN1CCN(c2cccc([C@H]3CC[C@@H]4CN(c5nc(C(C)(C)C)ccc5C(=O)NS(=O)(=O)c5cccc(n5)N3)C(C)(C)C4)n2)CC1 [Compound 195, (14S,17R)-8-tert-butyl-12,12-dimethyl-17-[6-(4-methylpiperazin-1-yl)pyridin-2-yl]-2λ^6-thia-3,9,11,18,23-pentaazatetracyclo[17.3.1.111,14.05,10]tetracosa-1(22),5,7,9,19(23),20-hexaene-2,2,4-trione]",+++ (+++ is >60%),< 1 µM
CC(C)(C)c1ccc2c(n1)N1C[C@@H](CCC(c3ccc(CN)cn3)Nc3cccc(n3)S(=O)(=O)NC2=O)CC1(C)C (stereo partly shown) [Compound 196],+++ (+++ is >60%),< 1 µM
CC(C)(C)c1ccc2c(n1)N1C[C@@H](CCC(c3ccc(N4CCOCC4)cn3)Nc3cccc(n3)S(=O)(=O)NC2=O)CC1(C)C (stereo partly shown) [Compound 198],+++ (+++ is >60%),< 1 µM
CC(C)(C)c1ccc2c(n1)N1C[C@@H](CCC(c3ccc(N4CCOCC4)cn3)Nc3cccc(n3)S(=O)(=O)NC2=O)CC1(C)C (stereo partly shown) [Compound 199],+++ (+++ is >60%),< 1 µM
CN1CCN(c2ccc(C3CC[C@@H]4CN(c5nc(C(C)(C)C)ccc5C(=O)NS(=O)(=O)c5cccc(n5)N3)C(C)(C)C4)nc2)CC1 (stereo partly shown) [Compound 200],+++ (+++ is >60%),< 1 µM
"CN1CCN(c2ccc(C3CC[C@@H]4CN(c5nc(C(C)(C)C)ccc5C(=O)NS(=O)(=O)c5cccc(n5)N3)C(C)(C)C4)nc2)CC1 (stereo partly drawn) [Compound 201, (14S)-8-tert-butyl-12,12-dimethyl-17-[5-(4-methylpiperazin-1-yl)pyridin-2-yl]-2λ^6-thia-3,9,11,18,23-pentaazatetracyclo[17.3.1.111,14.05,10]tetracosa-1(23),5(10),6,8,19,21-hexaene-2,2,4-trione]",+++ (+++ is >60%),< 1 µM
CC(C)(C)c1ccc2c(n1)N1C[C@@H](CC[C@@H](c3cccc(CN)n3)Nc3cccc(n3)S(=O)(=O)NC2=O)CC1(C)C [Compound 202],++ (++ is 30-60%),< 1 µM
"CC(C)(C)c1ccc2c(n1)N1C[C@@H](CC[C@H](c3cccc(CN)n3)Nc3cccc(n3)S(=O)(=O)NC2=O)CC1(C)C [Compound 203, (14S,17R)-17-[6-(aminomethyl)pyridin-2-yl]-8-tert-butyl-12,12-dimethyl-2λ^6-thia-3,9,11,18,23-pentaazatetracyclo[17.3.1.111,14.05,10]tetracosa-1(22),5,7,9,19(23),20-hexaene-2,2,4-trione]",+++ (+++ is >60%),< 1 µM
CC(C)(C)c1ccc2c(n1)N1C[C@@H](CCC(c3ccc(C#N)cn3)Nc3cccc(n3)S(=O)(=O)NC2=O)CC1(C)C (stereo partly shown) [Compound 204],+++ (+++ is >60%),< 1 µM
CC(C)(C)c1ccc2c(n1)N1C[C@@H](CC[C@@H](c3cccc(C#N)n3)Nc3cccc(n3)S(=O)(=O)NC2=O)CC1(C)C [Compound 210],++ (++ is 30-60%),< 1 µM

# The remaining lines, values ahead:
Corrector Assay A % activity,EC50,SMILES
+++ (+++ is >60%),< 1 µM,"CC(C)(C)c1ccc2c(n1)N1C[C@@H](CCC(c3ccc(N4CCCC4)cn3)Nc3cccc(n3)S(=O)(=O)NC2=O)CC1(C)C (stereo partly drawn) [Compound 164, (14S)-8-tert-butyl-12,12-dimethyl-17-[5-(pyrrolidin-1-yl)pyridin-2-yl]-2λ^6-thia-3,9,11,18,23-pentaazatetracyclo[17.3.1.111,14.05,10]tetracosa-1(23),5(10),6,8,19,21-hexaene-2,2,4-trione]"
++ (++ is 30-60%),< 1 µM,CC(C)(C)c1ccc2c(n1)N1C[C@@H](CCC(c3ccc(C4CNC4)cn3)Nc3cccc(n3)S(=O)(=O)NC2=O)CC1(C)C (stereo partly shown) [Compound 165]
+++ (+++ is >60%),< 1 µM,CC(C)(C)c1ccc2c(n1)N1C[C@@H](CCC(c3ccc(C4CNC4)cn3)Nc3cccc(n3)S(=O)(=O)NC2=O)CC1(C)C (stereo partly shown) [Compound 166]
++ (++ is 30-60%),< 1 µM,CC(C)(C)c1ccc2c(n1)N1C[C@@H](CCC(c3ccc(C4=CCOCC4)cn3)Nc3cccc(n3)S(=O)(=O)NC2=O)CC1(C)C (stereo partly shown) [Compound 167]
+++ (+++ is >60%),< 1 µM,CC(C)(C)c1ccc2c(n1)N1C[C@@H](CCC(c3ccc(C4=CCOCC4)cn3)Nc3cccc(n3)S(=O)(=O)NC2=O)CC1(C)C (stereo partly shown) [Compound 168]
++ (++ is 30-60%),< 1 µM,CC(C)(C)c1ccc2c(n1)N1C[C@@H](CCC(c3ccc(C4CC4)cn3)Nc3cccc(n3)S(=O)(=O)NC2=O)CC1(C)C (stereo partly shown) [Compound 169]
+++ (+++ is >60%),< 1 µM,CC(C)(C)c1ccc2c(n1)N1C[C@@H](CCC(c3ccc(C4CC4)cn3)Nc3cccc(n3)S(=O)(=O)NC2=O)CC1(C)C (stereo partly shown) [Compound 170]
+ (+ is <30%),< 1 µM,CC(C)(C)c1ccc2c(n1)N1C[C@@H](CC[C@@H](c3cccc(N4CCCCC4)n3)Nc3cccc(n3)S(=O)(=O)NC2=O)CC1(C)C [Compound 173]
+++ (+++ is >60%),< 1 µM,CC(C)(C)c1ccc2c(n1)N1C[C@@H](CC[C@H](c3cccc(N4CCCCC4)n3)Nc3cccc(n3)S(=O)(=O)NC2=O)CC1(C)C [Compound 174]
+++ (+++ is >60%),< 1 µM,CC(C)(C)c1ccc2c(n1)N1C[C@@H](CCC(c3ccc(N4CCC4)cn3)Nc3cccc(n3)S(=O)(=O)NC2=O)CC1(C)C (stereo partly shown) [Compound 175]
++ (++ is 30-60%),< 1 µM,CC(C)(C)C#Cc1ccc2c(n1)N1C[C@@H](CC[C@@H](c3ccccn3)Nc3cccc(n3)S(=O)(=O)NC2=O)CC1(C)C [Compound 176]
+++ (+++ is >60%),< 1 µM,CC(C)(C)C#Cc1ccc2c(n1)N1C[C@@H](CC[C@H](c3ccccn3)Nc3cccc(n3)S(=O)(=O)NC2=O)CC1(C)C [Compound 177]
+++ (+++ is >60%),< 1 µM,CC(C)Cc1ccc(C2CC[C@@H]3CN(c4nc(C(C)(C)C)ccc4C(=O)NS(=O)(=O)c4cccc(n4)N2)C(C)(C)C3)nc1 (stereo partly shown) [Compound 180]
++ (++ is 30-60%),< 1 µM,"CC(C)Cc1ccc(C2CC[C@@H]3CN(c4nc(C(C)(C)C)ccc4C(=O)NS(=O)(=O)c4cccc(n4)N2)C(C)(C)C3)nc1 (stereo partly drawn) [Compound 181, (14S)-8-tert-butyl-12,12-dimethyl-17-[5-(2-methylpropyl)pyridin-2-yl]-2λ^6-thia-3,9,11,18,23-pentaazatetracyclo[17.3.1.111,14.05,10]tetracosa-1(23),5(10),6,8,19,21-hexaene-2,2,4-trione]"
+++ (+++ is >60%),< 1 µM,CC(C)=Cc1ccc(C2CC[C@@H]3CN(c4nc(C(C)(C)C)ccc4C(=O)NS(=O)(=O)c4cccc(n4)N2)C(C)(C)C3)nc1 (stereo partly shown) [Compound 182]
++ (++ is 30-60%),< 1 µM,"CC(C)=Cc1ccc(C2CC[C@@H]3CN(c4nc(C(C)(C)C)ccc4C(=O)NS(=O)(=O)c4cccc(n4)N2)C(C)(C)C3)nc1 (stereo partly drawn) [Compound 183, (14S)-8-tert-Butyl-12,12-dimethyl-17-[5-(2-methylprop-1-en-1-yl)pyridin-2-yl]-2λ^6-thia-3,9,11,18,23-pentaazatetracyclo[17.3.1.111,14.05,10]tetracosa-1(23),5(10),6,8,19,21-hexaene-2,2,4-trione]"
+++ (+++ is >60%),< 1 µM,CC(C)(C)c1ccc2c(n1)N1C[C@@H](CCC(c3ccc(N4CCCCC4)cn3)Nc3cccc(n3)S(=O)(=O)NC2=O)CC1(C)C (stereo partly shown) [Compound 184]
++ (++ is 30-60%),< 1 µM,CC(C)(C)c1ccc2c(n1)N1C[C@@H](CCC(c3ccc(N4CCCCC4)cn3)Nc3cccc(n3)S(=O)(=O)NC2=O)CC1(C)C (stereo partly shown) [Compound 185]
++ (++ is 30-60%),< 1 µM,CN(C)CCNc1cccc([C@@H]2CC[C@@H]3CN(c4nc(C(C)(C)C)ccc4C(=O)NS(=O)(=O)c4cccc(n4)N2)C(C)(C)C3)n1 [Compound 188]
